Drawing on patent US20260070887A1 (Shenzhen Zhongge Biological Technology Co., Ltd., priority 2022, published 2026), this text covers IC50 for 17 compounds.

Read-outs that look alike come from different tables or passages of the source. A value given as a limit tells only on which side of the number the result lay.

In assay [1] the test system is HT-29 cells. Kind of assay: HT-29 cell proliferation (Cell Titer-Glo, 6 days). Type of assay: cell-based. The procedure: The inhibitory effect on the KIF18A target by the compounds of the present disclosure was evaluated by testing the inhibitory effect on proliferation of HT-29 cells by the compounds of the present disclosure.
HT-29 (ATCC, HTB-38) cells were cultured in McCoy's 5a complete medium (Gibco, 12330-031) containing 10% fetal bovine serum (Gibco, 10099-141C), 100 U penicillin and […] streptomycin (Gibco, 15140-122). The Promega kit Cell Titer-Glo (Promega: G7572) was used in this method for test. • 1. HT-29 cells were cultured in T75 cell flasks (Corning, 430641) and the medium was placed in a 37° C., 5% CO2 incubator. Cells were passaged when reaching a cell density of 70%-80%, approximately twice per week. • 2. To perform the experiment, the test compounds were dissolved in DMSO to prepare a 10 mM stock solution, and the test compounds were added to the 384-well cell test plate (Corning, 3765) at the predetermined concentration using ECHO. • 3. The cell culture flask was taken out, the medium was removed, and the cells were rinsed with PBS. Then 2 mL of trypsin (with 0.25% EDTA) was added, and the flask was placed in the incubator for digestion for 4 minutes. • 4. Digestion was stopped by adding 4 mL of complete medium and the cell suspension was transferred to a centrifuge tube and centrifuged at 1000 rpm for 4 minutes. • 5. The cells were resuspended in 6 mL of complete medium, followed by cell counting. The cell density was adjusted to 4,170 cells/mL, and the cells were added to a 384-well plate at 60 μL/well. • 6. The 384-well plate was centrifuged at 500 rpm for 1 minute, and then placed in a 37° C., 5% CO2 incubator for 6 days of cultivation. • 7. Six days later, the cell culture plate was equilibrated for 10 minutes at room temperature, 25 μL of Cell Titer-Glo was added to each well, and the mixture was shaken and mixed well and let stand for 5 minutes. The luminescence values for samples in various wells were read using a microplate reader in Luminescence mode.
The percentage of inhibition of cell proliferation by the test compound at each concentration was calculated by comparing with the values of the control group (0.3% DMSO). The IC50 values of the compounds were obtained by concentration-inhibition rate nonlinear regression analysis of the test compounds using GraphPad Prism 9.

In assay [2] the test system is OVCAR-3 cells. Kind of assay: OVCAR-3 cell proliferation (Cell Titer-Glo, 10 days). Type of assay: cell-based, human. Summed up: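 400 cells per well were seeded onto pre-dispensed compound (final 0.12 nM to 10 μM) in RPMI-1640 with 20% FBS and insulin, then co-cultured for 10 days. Viability was read as Cell Titer-Glo luminescence, inhibition was taken against 0.1% DMSO control, and IC50 came from nonlinear concentration-inhibition regression.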
A general note: Cellular ATP, detected with luciferase, serves as a proxy for viable cell number.

For assay [3], the system named is A2780 cells. Kind of assay: A2780 cell anti-proliferation assay. Type of assay: cell-based. Particulars: 6 days, Cell Titer-Glo. The procedure:
A2780 (ECACC) cells were cultured in RPMI-1640 complete medium (Gibco, A1049101) containing 10% fetal bovine serum (Gibco, 10099-141C), 100 U penicillin and 100 μg/mL streptomycin (Gibco, 15140-122). The Promega kit Cell Titer-Glo (Promega: G7572) was used in this method for test.
A2780 cells were cultured in T75 cell flasks (Corning, 430641) and the cells were placed in a 37° C., 5% CO2 incubator. Cells were passaged when reaching a cell density of 70%-80%, once every five days. To perform the experiment, the test compounds were dissolved in DMSO to prepare a 10 mM stock solution, and the test compounds were added to the 384-well cell test plate (Corning, 3765) at the predetermined concentration (19.5 nM-[…]) using ECHO. A2780 cells were digested and 4000 cells (60 μL medium) were seeded per well in the test plate. The 384-well plate was then centrifuged at 500 rpm for 1 minute, and then placed in a 37° C., 5% CO2 incubator for 6 days of cultivation. Six days later, the cell culture plate was equilibrated for 10 minutes at room temperature, 25 μL of Cell Titer-Glo was added to each well, and the mixture was shaken and mixed well and let stand for 5 minutes. The luminescence values for samples in various wells were read using a microplate reader in Luminescence mode.
The percentage of inhibition of A2780 cell proliferation by the test compound at each concentration was calculated by comparing with the values of the control group (0.2% DMSO). The IC50 values of the compounds were obtained by concentration-inhibition rate nonlinear regression analysis of the test compounds using GraphPad Prism 9.

As usually defined, the IC50 is the midpoint of a concentration-inhibition curve. Read a low IC50 as inhibition by little substance. With `CC1Cn2c(cc3c(NC(=O)c4ccc(NS(=O)(=O)CCO)cc4N4CCC5(CC4)CC5)cccc32)C(C)O1` (single isomer, unassigned) [Compound 312-P2A, N-(1,3-dimethyl-3,4-dihydro-1H-[1,4]oxazino[4,3-a]indol-9-yl)-4-((2-hydroxyethyl)sulfonamido)-2-(6-azaspiro[2.5]oct-6-yl)benzamide], the IC50 in assay [1] (Homo sapiens, HT-29, 144 h) was at most 200 nM; in assay [2], at most 50 nM; in assay [3], 6500 nM.

Regarding `CC1Cn2c(cc3c(NC(=O)c4ccc(NS(=O)(=O)CCO)cc4N4CCC5(CC4)CC5)cccc32)C(C)O1` (single isomer, unassigned) [Compound 312-P3, N-(1,3-dimethyl-3,4-dihydro-1H-[1,4]oxazino[4,3-a]indol-9-yl)-4-((2-hydroxyethyl)sulfonamido)-2-(6-azaspiro[2.5]oct-6-yl)benzamide], the IC50 in assay [1] is at most 200 nM; in assay [2], at most 50 nM; in assay [3] (Homo sapiens, A2780, 144 h), over 10000 nM.

Turning to `COC1c2cc3c(NC(=O)c4ccc(NS(=O)(=O)CCO)cc4N4CCC5(CC4)CC5)cccc3n2CCC1(F)F` (single isomer, unassigned) [Example 340-P2], the concentration for half-maximal inhibition (IC50) in assay [1] was at most 200 nM; in assay [2], at most 50 nM; in assay [3], over 10000 nM.

For the compound `CC1(C)Cn2c(nc3c(NC(=O)c4ccc(NS(=O)(=O)CCO)cc4N4CCC5(CC4)CC5)cccc32)CO1` [Compound 391, N-(3,3-dimethyl-3,4-dihydro-1H-benzo[4,5]imidazo[2,1-c][1,4]oxazin-9-yl)-4-((2-hydroxyethyl)sulfonamido)-2-(6-azaspiro[2.5]octan-6-yl)benzamide], the IC50 in assay [1] (Homo sapiens, HT-29, 144 h) is at most 200 nM; in assay [2] (Homo sapiens, OVCAR-3, 240 h) it was at most 50 nM; in assay [3] (Homo sapiens, A2780, 144 h), over 10000 nM.

Regarding `CC1(C)Cn2c(cc3c(NC(=O)c4ccc(NS(=O)(=O)CCO)cc4N4CCC5(CC4)CC5)ccc(C#N)c32)CO1` [Compound 392, N-(6-cyano-3,3-dimethyl-3,4-dihydro-1H-[1,4]oxazino[4,3-a]indol-9-yl)-4-((2-hydroxyethyl)sulfonamido)-2-(6-azaspiro[2.5]oct-6-yl)benzamide], the IC50 was at most 200 nM in assay [1] (Homo sapiens, HT-29, 144 h); at most 50 nM in assay [2] (Homo sapiens, OVCAR-3, 240 h); 6100 nM in assay [3] (Homo sapiens, A2780, 144 h).

Regarding `CC1(C)Cn2c(cc3c(NC(=O)c4ccc(NS(=O)(=O)CCO)cc4N4CCC(=C(F)F)CC4)ccc(C#N)c32)CO1` [Compound 393, N-(6-cyano-3,3-dimethyl-3,4-dihydro-1H-[1,4]oxazino[4,3-a]indol-9-yl)-2-(4-(difluoromethylene)piperidin-1-yl)-4-((2-hydroxyethyl)sulfonamido)benzamide], the IC50 in assay [1] (Homo sapiens, HT-29, 144 h) is at most 200 nM; in assay [2] (Homo sapiens, OVCAR-3, 240 h), 50 to 500 nM; in assay [3] (Homo sapiens, A2780, 144 h) it was over 10000 nM.

On to `CC1(C)Cn2c(nc3c(NC(=O)c4ccc(NS(=O)(=O)CCO)cc4N4CCC(=C(F)F)CC4)cccc32)CO1` [Compound 394, 2-(4-(difluoromethylene)piperidin-1-yl)-N-(3,3-dimethyl-3,4-dihydro-1H-benzo[4,5]imidazo[2,1-c][1,4]oxazin-9-yl)-4-((2-hydroxyethyl)sulfonamido)benzamide], for which the IC50 was at most 200 nM in assay [1] (Homo sapiens, HT-29, 144 h); at most 50 nM in assay [2] (Homo sapiens, OVCAR-3, 240 h); over 10000 nM in assay [3] (Homo sapiens, A2780, 144 h).

For the compound `CC1(C)OCCn2c1cc1c(NC(=O)c3ccc(NS(=O)(=O)CCO)cc3N3CCC(=C(F)F)CC3)cccc12` [Compound 395, 2-(4-(difluoromethylene)piperidin-1-yl)-N-(1,1-dimethyl-3,4-dihydro-1H-[1,4]oxazino[4,3-a]indol-9-yl)-4-((2-hydroxyethyl)sulfonamido)benzamide], the IC50 in assay [1] (Homo sapiens, HT-29, 144 h) is 200 to 1000 nM; in assay [2] (Homo sapiens, OVCAR-3, 240 h), 50 to 500 nM; in assay [3] (Homo sapiens, A2780, 144 h) it was over 10000 nM.

As to `O=C(Nc1cccc2c1cc1n2CC2CCC1O2)c1ccc(NS(=O)(=O)CCO)cc1N1CCC(=C(F)F)CC1` (centres unmarked) [Compound 398, 2-(4-(difluoromethylene)piperidin-1-yl)-4-((2-hydroxyethyl)sulfonamido)-N-(7,8,9,10-tetrahydro-6H-7,10-epoxyazeto[1,2-a]indol-1-yl)benzamide], the IC50 in assay [2] was at most 50 nM; in assay [3] it was over 10000 nM.

With `COc1ccc(NC(=O)c2ccc(NS(=O)(=O)CCO)cc2N2CCC(=C(F)F)CC2)c2cc3n(c12)CCOC3` [Compound 405, 2-(4-(difluoromethylene)piperidin-1-yl)-4-((2-hydroxyethyl)sulfonamido)-N-(6-methoxy-3,4-dihydro-1H-[1,4]oxazinyl[4,3-a]indol-9-yl)benzamide], the IC50 in assay [1] is at most 200 nM; in assay [2], at most 50 nM; in assay [3] it was over 10000 nM.

As for `Nc1cc(NS(=O)(=O)CCO)cc(N2CCC3(CC2)CC3)c1C(=O)Nc1cccc(N2CCC(F)(F)CC2)c1` [Example 1, 2-amino-N-(3-(4,4-difluoropiperidin-1-yl)phenyl)-4-((2-hydroxyethyl)sulfonamide)-6-(6-azaspiro[2.5]octan-6-yl)benzamide], the values for the IC50 in assay [1] and in assay [2] were at most 200 nM and at most 50 nM, respectively.

For `CNc1cc(NS(=O)(=O)CCO)cc(N2CCC3(CC2)CC3)c1C(=O)Nc1cc(C)nc(N2CCC(F)(F)CC2)n1` [Example 4, N-(2-(4,4-difluoropiperidin-1-yl)-6-methylpyrimidin-4-yl)-4-(2-hydroxyethylsulfonamide)-2-methylamino-6-(6-azaspiro[2.5]octan-6-yl)benzamide], the IC50 in assay [1] is at most 200 nM; in assay [2], at most 50 nM; in assay [3] it was 8300 nM.

Turning to `O=C(Nc1cccc2c1cc1n2CCOC1)c1ccc(NS(=O)(=O)CCO)cc1N1CCC2(CC1)CC2` [Example 235, N-(3,4-dihydro-1H-[1, 4]oxazino[4,3-a]indol-9-yl)-4-(2-hydroxyethylsulfonamido)-2-(6-azaspiro[2.5]octan-6-yl)benzamide], the IC50 in assay [1] (Homo sapiens, HT-29, 144 h) is at most 200 nM; in assay [2] (Homo sapiens, OVCAR-3, 240 h), at most 50 nM; in assay [3] (Homo sapiens, A2780, 144 h), over 10000 nM.

Take `O=C(Nc1ccc(F)c2c1nc1n2CCOC1)c1ccc(NS(=O)(=O)CCO)cc1N1CCC2(CC1)CC2` [Example 308, N-(6-fluoro-3,4-dihydro-1H-benzo[4,5]imidazo[2,1-c][1,4]oxazin-9-yl)-4-((2-hydroxyethyl)sulfonamido)-2-(6-azaspiro[2.5]octan-6-yl)benzamide]: the IC50 in assay [1] (Homo sapiens, HT-29, 144 h) was at most 200 nM; in assay [2] (Homo sapiens, OVCAR-3, 240 h) it was at most 50 nM; in assay [3] (Homo sapiens, A2780, 144 h) it was over 10000 nM.

As to `N#Cc1ccc(NC(=O)c2ccc(NS(=O)(=O)CCO)cc2N2CCC3(CC2)CC3)c2cc3n(c12)CCOC3` [Example 310, N-(6-cyano-3,4-dihydro-1H-[1,4]oxazino[4,3-a]indol-9-yl)-4-((2-hydroxyethyl)sulfonamido)-2-(6-azaspiro[2.5]oct-6-yl)benzamide], the IC50 in assay [1] (Homo sapiens, HT-29, 144 h) is at most 200 nM; in assay [2] (Homo sapiens, OVCAR-3, 240 h), at most 50 nM; in assay [3] (Homo sapiens, A2780, 144 h), over 10000 nM.

Take `O=C(Nc1cccc2c1cc1n2CCOC1)c1ccc(NS(=O)(=O)CCO)cc1N1CCC(=C(F)F)CC1` [Example 319, 2-(4-difluoromethylene)piperidin-1-yl-N-(3,4-dihydro-1H-[1,4]oxazino[4,3-a]indol-9-yl)-4-((2-hydroxyethyl)sulfonamide) benzamide]: the results for the IC50 in assay [1], in assay [2] and in assay [3] were 200 to 1000 nM, at most 50 nM and over 10000 nM, respectively.

As for `CC1(C)Cn2c(cc3c(NC(=O)c4ccc(NS(=O)(=O)CCO)cc4N4CCC5(CC4)CC5)ccc(OC(F)F)c32)CO1` [Example 523], in assay [2], the IC50 is at most 50 nM.
